Data published in publication PMC9822155, “Synthesis and Antiproliferative Activity against Cancer Cells of Indole-Aryl-Amide Derivatives” (Molecules, 2022).

Key:
Jurkat J6 cells = experiment: MTT viability assay, Jurkat J6; format: cell-based, human
Source text: (§1) To investigate whether the compounds have an antitumor activity, we performed in vitro viability assays against a panel of cancer cell lines: HT29 (human colorectal adenocarcinoma), HeLa (human cervical carcinoma), IGROV-1 (human ovarian carcinoma), MCF7 (human breast cancer), PC-3 (human prostate adenocarcinoma), and Jurkat J6 (human […]). The I407 (human embryonic intestinal) and 3T3 (mouse embryonic fibroblast) cells were used as controls. The growth inhibitory concentration was determined by incubating the cells with increasing concentrations (0.01–500 μM) of the compounds for 24 h. Data obtained from cell growth assays were elaborated to assess the concentration of cell viability (IC50) and selectivity indices (SI), and the results are shown in Table 2 and Table 3, respectively.
(§2) HT29 human colorectal adenocarcinoma cells, HeLa human cervix adenocarcinoma cells, MCF7 human breast adenocarcinoma cells, PC-3 human prostate adenocarcinoma cells, J6 Jurkat Clone E6-1 acute T cell leukemia, the healthy I407 human intestine cells, and mouse embryonic fibroblast 3T3 fibroblasts as controls cell lines were purchased from American Type Culture Collection (ATCC, Manassas, VA). The human ovarian cancer cell line IGROV1 has been kindly provided by Prof. Colnaghi (Istituto Nazionale Tumori (IRCCS) (Milano, Italy). Cells were cultured in RPMI 1640 medium (Labtek Eurobio, Milan, Italy), supplemented with 10% FCS (Euroclone, Milano, Italy) and 2 mM L-glutamine (Sigma-Aldrich, Milano, Italy), at 37 °C, and a 5% CO2 atmosphere. The compounds were dissolved in DMSO in a 30–40 mM stock solution. In cell treatments, the final DMSO concentration never exceeded 0.1%.
(§3) Cells were seeded at 1.5 × 10^4 cells/well in a 96-well culture plastic plate (Sarsted, Milan, Italy), and after 24 h of growth were exposed to increasing concentrations of each distinct compound (from 0.010 μM to 500 μM) solubilized in RPMI 1640 medium. MTT assay was performed according to the literature. In brief, after 24 h of treatment, the culture medium was replaced with 0.1 mL of 3-(4,5-dimethylthiazolyl-2)-2,5-diphenyltetrazolium bromide (MTT, Sigma-Aldrich, Milano, Italy) dissolved in PBS at the concentration of 0.2 mg/mL, and samples were incubated for 2 h at 37 °C. The absorbance at 570 nm was measured using a multiwell plate reader (Tecan, Männemorf, Switzerland), and data were analyzed by Prism GraphPad software, and expressed as IC50 μM.

δ-OR = target: T1, δ-OR (Homo sapiens, UniProt P41143); experiment: Radioligand binding assay, δ-OR ([3H]deltorphin-2 displacement); settings: [3H]deltorphin-2, membranes of CHO cells with human recombinant OR; ± SEM (n ≥ 3)
T1 construct: purchased PerkinElmer (Krakow, Poland); host or cells: CHO cells (membranes)
Experimental: In order to evaluate the affinity of the compounds for μ-, δ-, κ-ORs, radioligand binding assays were performed. Displacement of radioligands, [^3H]DAMGO (μ-OR selective), [^3H]deltorphin-2 (δ-OR selective), and [^3H]U-69593 (κ-OR selective) by the synthetic analogs was investigated in the commercial membranes of CHO cells transfected with human recombinant ORs. […] Due to the modest receptor affinities, the functional activity of the compounds was not investigated.
Opioid radioligands, [^3H]DAMGO, [^3H]deltorphin-2 and [^3H]U-69593, and human recombinant opioid receptors came from PerkinElmer (Krakow, Poland). GF/B glass fiber strips were purchased from Whatman (Brentford, UK).
To determine the affinity of peptide analogs at the respective receptors, competition binding experiments were performed. Commercial membranes of CHO cells stably expressing human opioid receptors and the competing radioligands, [^3H]DAMGO, [^3H]deltorphin-2, and [^3H]U-69593 for μ-OR, δ-OR, and κ-OR, respectively, were used. Membranes were incubated in 0.5 mL volume of 50 mM Tris/HCl (pH = 7.4), 0.5% bovine serum albumin (BSA), with a number of peptidase inhibitors (bacitracin, bestatin, captopril) and various concentrations of radioligands for 2 h at 25 °C. Non-specific binding was assessed in the presence of […]. Three independent experiments for each assay were carried out in duplicate. The data were analyzed by a nonlinear least square regression analysis computer program Graph Pad PRISM 6.0 (Graph Pad Software Inc., San Diego, CA, USA). The IC50 values were determined from the logarithmic concentration-displacement curves, and the values of the inhibitory constants (Ki) were calculated according to the equation of Cheng and Prusoff.

HT29 cells = experiment: Cell cycle analysis by flow cytometry (PI staining); format: cell-based, human; settings: HT29, 5 μM, 24 h
Experimental: HT29 cells were treated with 1 or 5 μM 5 for 24 h and analyzed by flow cytometry after DNA staining. […] In contrast, 5-treated HT29 cells accumulated in the G0/G1 phase in a dose-dependent manner, with a nearly complete synchronization (84% ± 0.9) after 5 μM treatment.
HT29 were plated at density of 20,000 cell/cm^2 in dish and after 24 h treated with 1 or 5 μM of 5 for 24 h. The samples were prepared in according to Calonghi. In brief, untreated and treated cells were detached, washed in PBS and the pellet was finally re-suspended in 0.01% Nonidet P-40 (Sigma-Aldrich, Milano, Italy), 10 μg/mL RNase (Sigma-Aldrich, Milano, Italy), 0.1% sodium citrate (Sigma-Aldrich, Milano, Italy), 50 μg/mL propidium iodide (PI) (Sigma-Aldrich, Milano, Italy), for 30 min at room temperature in the dark. Propidium iodide (PI) fluorescence was acquired on a linear scale and analysed by Modfit software version 5.2 (USA). Flow cytometric assays were performed on a Brite HS flow cytometer (Bio-Rad, Watford, UK) equipped with a Xe/Hg lamp.

[1] = test system: PC-3 (human prostate adenocarcinoma) cells; experiment: MTT viability assay, PC3; format: cell-based
Source text: as §1, §2, §3

T1 sequence (P41143 whole entry): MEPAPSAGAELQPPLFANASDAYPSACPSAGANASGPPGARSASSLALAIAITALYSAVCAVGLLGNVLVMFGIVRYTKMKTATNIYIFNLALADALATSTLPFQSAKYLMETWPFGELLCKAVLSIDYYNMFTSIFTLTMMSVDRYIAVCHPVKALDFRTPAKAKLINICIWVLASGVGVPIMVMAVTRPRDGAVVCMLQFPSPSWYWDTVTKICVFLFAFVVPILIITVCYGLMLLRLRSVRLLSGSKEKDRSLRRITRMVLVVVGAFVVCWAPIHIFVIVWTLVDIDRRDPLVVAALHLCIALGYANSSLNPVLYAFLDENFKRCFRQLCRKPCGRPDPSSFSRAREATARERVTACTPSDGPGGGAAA

IC50 (Jurkat J6 cells; Homo sapiens, Jurkat, MTT, 24 h): 0.37 ± 0.04 µM | Ki (δ-OR): 10.8 ± 1.3 µM | IC50 ([1]; Homo sapiens, MTT, 24 h): 0.39 ± 0.07 µM
Compound: Nc1ccc(CN(Cc2ccc(O)cc2)C(=O)Cc2c[nH]c3ccccc23)cc1 [Compound 5]
Selectivity Index IC503T3/ IC50J6 (Jurkat J6 cells; 3T3 normal cells as reference): 86.487 | Cells in G0/G1 phase (HT29 cells): 84% ± 0.9 | Selectivity Index IC503T3/ IC50PC3 ([1]; 3T3 normal cells as reference): 82.051
